Some results are limits rather than exact numbers.

The first assay deals with HBV rcDNA in HepDE19 cells. Nature of the assay: HepDE19 assay with bDNA quantitation of HBV rcDNA. In kind it is cell-based, hepatitis B virus. Conditions: HepDE19 cells, 7 day incubation, rcDNA measured by Quantigene 2.0 bDNA assay; top concentration 25 µM; read-out: DE-19bDNA EC50. The procedure, abridged:
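HepDE19 cells were induced by tetracycline withdrawal, then treated with compounds (0.5% DMSO final) for 7 days at 37 °C. HBV rcDNA measured by bDNA assay with HBV-specific probes. Viability assessed on replicate plates (5,000 cells/well, 4 days) by CellTiter-Glo ATP content.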
Regarding `CC(c1n[nH]c(=O)c2cc(F)c(F)cc12)N(C)C(=O)c1ccc2ccn(C)c2c1` (single isomer, unassigned) [Compound 104, N-(1-(6,7-difluoro-4-oxo-3,4-dihydrophthalazin-1-yl)ethyl)-N,1-dimethyl-1H-indole-6-carboxamide], the EC50 is more than 25000 nM.
Same read-out and setting: then `CC(c1n[nH]c(=O)c2cc(F)c(F)cc12)N(C)C(=O)c1ccc2ncoc2c1` (single isomer, unassigned) [Compound 91, N-(1-(6,7-difluoro-4-oxo-3,4-dihydrophthalazin-1-yl)ethyl)-N-methylbenzo[d]oxazole-6-carboxamide], with 3860 nM; and `CC(c1n[nH]c(=O)c2cc(F)c(F)cc12)N(C)C(=O)c1ccc2scnc2c1` (single isomer, unassigned) [Compound 84, N-(1-(6,7-difluoro-4-oxo-3,4-dihydrophthalazin-1-yl)ethyl)-N-methylbenzo[d]thiazole-5-carboxamide], with more than 25000 nM.
On the same count and under the same terms, then `CC(c1n[nH]c(=O)c2cc(F)c(F)cc12)N(C)C(=O)c1ccc2cn[nH]c2c1` (single isomer, unassigned) [Compound 113, N-(1-(6,7-difluoro-4-oxo-3,4-dihydrophthalazin-1-yl)ethyl)-N-methyl-1H-indazole-6-carboxamide], with 2490 nM; and `CC(c1n[nH]c(=O)c2cc(F)c(F)cc12)N(C)C(=O)c1cc2sccc2[nH]1` (single isomer, unassigned) [Compound 81, N-(1-(6,7-difluoro-4-oxo-3,4-dihydrophthalazin-1-yl)ethyl)-N-methyl-4H-thieno[3,2-b]pyrrole-5-carboxamide], with 110 nM.
On to `CC(c1n[nH]c(=O)c2cc(F)c(F)cc12)N(C)C(=O)c1cc2sccc2[nH]1` (single isomer, unassigned) [Compound 80, N-(1-(6,7-difluoro-4-oxo-3,4-dihydrophthalazin-1-yl)ethyl)-N-methyl-4H-thieno[3,2-b]pyrrole-5-carboxamide], for which the EC50 turned out to be 14100 nM.
Same read-out and setting: with `CC(c1n[nH]c(=O)c2cc(F)c(F)cc12)N(C)C(=O)c1cnc(C(F)(F)F)c(Cl)c1` (single isomer, unassigned) [Compound 92, 5-chloro-N-(1-(6,7-difluoro-4-oxo-3,4-dihydrophthalazin-1-yl)ethyl)-N-methyl-6-(trifluoromethyl)nicotinamide] the figure was more than 25000 nM.
Same read-out and setting: with `CC(c1n[nH]c(=O)c2cc(F)c(F)cc12)N(C)C(=O)c1cc2sc(F)cc2[nH]1` (single isomer, unassigned) [Compound 103, N-(1-(6,7-difluoro-4-oxo-3,4-dihydrophthalazin-1-yl)ethyl)-2-fluoro-N-methyl-4H-thieno[3,2-b]pyrrole-5-carboxamide] the figure was 60 nM.

The same assay, now with this note: Hepatitis B virus, HepDE19, 168 h, HepDE19 cells, 7 day incubation, rcDNA measured by Quantigene 2.0 bDNA assay; top concentration 25 µM; read-out: DE-19bDNA EC50.
As to `CC(C)CN(C(=O)Nc1ccc(F)cc1)C(C)c1n[nH]c(=O)c2cc(Cl)ccc12` (racemic) [Compound 11, 1-(1-(6-chloro-4-oxo-3,4-dihydrophthalazin-1-yl)ethyl)-3-(4-fluorophenyl)-1-isobutylurea], the EC50 turned out to be 40 nM.
On the same count and under the same terms, with `CC(c1n[nH]c(=O)c2cc(F)c(F)cc12)N(C)C(=O)c1cc2c(F)cccc2[nH]1` (racemic) [Compound 53, N-(1-(6,7-difluoro-4-oxo-3,4-dihydrophthalazin-1-yl)ethyl)-4-fluoro-N-methyl-1H-indole-2-carboxamide] the figure was 83 nM; with `CC(c1n[nH]c(=O)c2cc(F)c(F)cc12)N(C)C(=O)c1ccc(F)c(F)c1` (racemic) [Compound 70, N-(1-(6,7-difluoro-4-oxo-3,4-dihydrophthalazin-1-yl)ethyl)-3,4-difluoro-N-methylbenzamide], 890 nM; with `CC(C)CN(C(=O)Nc1ccc(F)c(Cl)c1)C(C)c1n[nH]c(=O)c2cc(F)ccc12` (racemic) [Compound 15, 3-(3-chloro-4-fluorophenyl)-1-(1-(6-fluoro-4-oxo-3,4-dihydrophthalazin-1-yl)ethyl)-1-isobutylurea], 10 nM.
Same read-out and setting: with `Cc1c(C(=O)N(C)C(C)c2n[nH]c(=O)c3cc(F)c(F)cc23)[nH]c2ccccc12` (racemic) [Compound 55, N-(1-(6,7-difluoro-4-oxo-3,4-dihydrophthalazin-1-yl)ethyl)-N,3-dimethyl-1H-indole-2-carboxamide] the figure was 440 nM.
Still for that read-out and setting: with `CC(C)CN(C(=O)NC1CC1)C(C)c1nn(C)c(=O)c2cc(F)c(F)cc12` (racemic) [Compound 33, 3-cyclopropyl-1-(1-(6,7-difluoro-3-methyl-4-oxo-3,4-dihydrophthalazin-1-yl)ethyl)-1-isobutylurea] the figure was 6300 nM.
Take `CC(C)CN(C(=O)Nc1ccc(F)cc1)C(C)c1n[nH]c(=O)c2cc(F)ccc12` (racemic) [Compound 16, 1-(1-(6-fluoro-4-oxo-3,4-dihydrophthalazin-1-yl)ethyl)-3-(4-fluorophenyl)-1-isobutylurea]: the EC50 is 16 nM.
Take `CC(c1n[nH]c(=O)c2c(F)cccc12)N(C)C(=O)Nc1ccc(F)c(F)c1` (stereo not drawn) [Compound 45, 3-(3,4-difluorophenyl)-1-(1-(5-fluoro-4-oxo-3,4-dihydrophthalazin-1-yl)ethyl)-1-methylurea]: the EC50 was 790 nM.
On the same count and under the same terms, then `CCN(C(=O)c1cc2c(F)c(F)ccc2[nH]1)C(C)c1n[nH]c(=O)c2cc(F)c(F)cc12` (racemic) [Compound 49, N-(1-(6,7-difluoro-4-oxo-3,4-dihydrophthalazin-1-yl)ethyl)-N-ethyl-4,5-difluoro-1H-indole-2-carboxamide], with 25 nM.
Still for that read-out and setting: with `CC(c1n[nH]c(=O)c2cc(Cl)ccc12)N(CCCO)C(=O)Nc1ccc(F)cc1` (racemic) [Compound 14, 1-(1-(6-chloro-4-oxo-3,4-dihydrophthalazin-1-yl)ethyl)-3-(4-fluorophenyl)-1-(3-hydroxypropyl)urea] the figure was 110 nM; with `CC(c1nn(C)c(=O)c2cc(F)c(F)cc12)N(C)C(=O)Nc1ccc(F)c(Cl)c1` (racemic) [Compound 22, 3-(3-chloro-4-fluoro-phenyl)-1-[1-(6,7-difluoro-3-methyl-4-oxo-phthalazin-1-yl)ethyl]-1-methyl-urea], 26 nM; with `CC(c1n[nH]c(=O)c2cc(F)c(F)cc12)N(C)C(=O)c1cc2ccc(F)cc2[nH]1` (racemic) [Compound 52, N-(1-(6,7-difluoro-4-oxo-3,4-dihydrophthalazin-1-yl)ethyl)-6-fluoro-N-methyl-1H-indole-2-carboxamide], 43 nM.
As for `CC(c1nn(C)c(=O)c2cc(F)c(F)cc12)N(CCS(=O)(=O)NC(=O)Nc1ccc(F)c(Cl)c1)C(=O)Nc1ccc(F)c(Cl)c1` (racemic) [Compound 30, 3-(3-chloro-4-fluoro-phenyl)-1-[2-[(3-chloro-4-fluorophenyl)carbamoylsulfamoyl]ethyl]-1-[1-(6,7-difluoro-3-methyl-4-oxo-phthalazin-1-yl)ethyl]urea], the EC50 was determined as 58 nM.
On the same count and under the same terms, with `CC(C)CN(C(=O)Nc1ccc(F)cc1)C(C)c1nn(C)c(=O)c2cc(F)c(F)cc12` (racemic) [Compound 24, 1-(1-(6,7-difluoro-3-methyl-4-oxo-3,4-dihydrophthalazin-1-yl)ethyl)-3-(4-fluorophenyl)-1-isobutylurea] the figure was 7 nM; with `CC(c1n[nH]c(=O)c2cc(F)c(F)cc12)N(C)C(=O)c1cc2c(Cl)cccn2c1` (racemic) [Compound 75, 8-chloro-N-(1-(6,7-difluoro-4-oxo-3,4-dihydrophthalazin-1-yl)ethyl)-N-methylindolizine-2-carboxamide], 60 nM.

Staying with this assay, now noted: Hepatitis B virus, HepDE19, 168 h, read-out: DE-19bDNA EC50.
On to `C[C@H](c1n[nH]c(=O)c2cc(F)c(F)cc12)N(C)C(=O)Nc1ccc(F)c(F)c1` [Compound 41, (R)(1-(6,7-difluoro-4-oxo-3,4-dihydrophthalazinyl)ethyl)methyl-3-(3,4-difluorophenyl)urea], for which the EC50 was found to be 24 nM.
Still for that read-out and setting: then `CC(c1n[nH]c(=O)c2cc(F)c(F)cc12)N(C)C(=O)c1ccccc1` (racemic) [Compound 74, N-(1-(6,7-difluoro-4-oxo-3,4-dihydrophthalazin-1-yl)ethyl)-N-methylbenzamide], with 17700 nM; and `CC(c1n[nH]c(=O)c2cc(F)c(F)cc12)N(C)C(=O)c1ccc(Cl)cc1` (racemic) [Compound 69, 4-chloro-N-(1-(6,7-difluoro-4-oxo-3,4-dihydrophthalazin-1-yl)ethyl)-N-methylbenzamide], with 200 nM; and `C[C@H](c1n[nH]c(=O)c2cc(F)c(F)cc12)N(C)C(=O)Nc1ccc(F)c(Cl)c1` (single isomer, unassigned) [Compound 32], with 21 nM.

By EC50 is commonly meant the concentration giving half of the maximal effect.

The values above are taken from patent US20230312481A1, “SUBSTITUTED (PHTHALAZIN-1-YLMETHYL)UREAS, SUBSTITUTED N-(PHTHALAZIN-1-YLMETHYL)AMIDES, AND ANALOGUES THEREOF” (priority 2020, published 2023).
